According to patent publication US20180353501A1 (Arvinas, Inc., priority 2017, published 2018):

Target: T1, endogenous p38δ (Homo sapiens, UniProt O15264+P40337)
T1 construct: GST-VBC was immobilized on glutathione sepharose beads and incubated with MDA-MB-231 whole cell lysate (WCL); endogenous in cells; host or cells: MDA-MB-231 whole cell lysate (p38δ); GST-VBC bait made in E. coli BL21(DE3)
Experiment: Ternary complex pull-down from MDA-MB-231 whole cell lysate with GST-VBC bait
Assay type: binding
Excerpt: FIGS. 15A, 15B, and 15C. Differential p38δ:PROTAC:VHL ternary complex affinities result in distinct cellular ubiquitination outcomes. (A) Both exemplary compound 50 and 46 pull-down p38δ in vitro, however compound 46 maintains ternary complex at lower concentrations. As in FIG. 14A, GST-tagged VBC was used as a bait to trap recombinant p38δ in the presence of vehicle (DMSO) or the indicated concentrations of compound 50 or 46. The rightmost lane represents a 1:25 dilution of initial input protein used in each pull-down. […] GST-VBC was immobilized on glutathione sepharose beads and incubated with MDA-MB-231 whole cell lysate (WCL) in the presence of vehicle (DMSO) or the indicated concentrations of compound 50 or 46. Beads were washed and “trapped” proteins (i.e. those that engage in a ternary complex) were eluted with SDS sample buffer and separated by SDS-PAGE. Samples were assessed by western blot and CUL2 and α-tubulin serve as positive and negative GST-VBC immunoprecipitation controls, respectively. […] FLAGimmunoprecipitated lysates were separated by SDS-PAGE and assessed via western blots detecting HA (Ub). […]
To further assess these findings, a more biologically-relevant context for measuring ternary complex formation was used. […] Thus, whether PROTAC-induced PPIs could be monitored in a complex cellular environment using CETSA was examined. […]

T1 sequence (O15264 whole entry): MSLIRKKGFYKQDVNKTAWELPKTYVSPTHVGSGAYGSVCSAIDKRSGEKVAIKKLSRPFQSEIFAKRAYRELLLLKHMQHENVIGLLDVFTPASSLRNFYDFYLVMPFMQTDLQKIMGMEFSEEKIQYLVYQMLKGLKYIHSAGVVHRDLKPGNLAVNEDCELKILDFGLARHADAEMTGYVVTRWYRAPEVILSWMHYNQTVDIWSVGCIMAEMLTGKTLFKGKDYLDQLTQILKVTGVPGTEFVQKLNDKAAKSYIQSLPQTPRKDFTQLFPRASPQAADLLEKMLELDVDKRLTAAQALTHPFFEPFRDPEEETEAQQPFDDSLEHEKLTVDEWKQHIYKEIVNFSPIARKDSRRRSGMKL
T1 sequence (P40337 whole entry): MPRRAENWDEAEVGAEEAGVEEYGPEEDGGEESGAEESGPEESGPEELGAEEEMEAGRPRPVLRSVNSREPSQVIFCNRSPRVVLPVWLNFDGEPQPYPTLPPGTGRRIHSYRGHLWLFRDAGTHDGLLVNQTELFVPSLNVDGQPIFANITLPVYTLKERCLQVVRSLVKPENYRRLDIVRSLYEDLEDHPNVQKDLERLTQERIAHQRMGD
T1 sequence (Q15370 whole entry partner): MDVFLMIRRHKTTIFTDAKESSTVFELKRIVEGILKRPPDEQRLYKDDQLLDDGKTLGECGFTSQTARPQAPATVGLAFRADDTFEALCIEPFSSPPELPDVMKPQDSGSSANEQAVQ
T1 sequence (Q15369 whole entry partner): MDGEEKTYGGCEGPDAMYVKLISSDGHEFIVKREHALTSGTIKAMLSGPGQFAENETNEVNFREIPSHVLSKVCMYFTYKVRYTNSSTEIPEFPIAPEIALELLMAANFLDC

| SMILES | enrichment of endogenous p38δ from whole cell lysate on GST-VBC bait |
| --- | --- |
| COc1cc2c(Oc3ccc(NC(=O)C4(C(=O)Nc5ccc(F)cc5)CC4)cc3F)ccnc2cc1OCCOCCOCCOc1cc(-c2scnc2C)ccc1CNC(=O)[C@@H]1C[C@@H](O)CN1C(=O)[C@H](C(C)C)N1Cc2ccccc2C1=O [compound 46] | strongly enrich for endogenous p38δ in a dose-dependent manner |
| COc1cc2c(Oc3ccc(NC(=O)C4(C(=O)Nc5ccc(F)cc5)CC4)cc3F)ccnc2cc1OCCCCOCCCCOCC(=O)N[C@H](C(=O)N1C[C@H](O)C[C@H]1C(=O)NCc1ccc(-c2scnc2C)cc1)C(C)(C)C [compound 50, N-(3-fluoro-4-((7-(4-(4-(2-(((S)-1-((2S,4R)-4-hydroxy-2-((4-(4-methylthiazol-5-yl)benzyl)carbamoyl)pyrrolidin-1-yl)-3,3-dimethyl-1-oxobutan-2-yl)amino)-2-oxoethoxy)butoxy)buto-xy)-6-methoxyquinolin-4-yl)oxy)phenyl)-N-(4-fluorophenyl)cyclopropane-1,1-dicarboxa-mide] | greatly reduced |
